In patent US20220232861A1, “ZINC COMPOUNDS IN FOOD IMMERSION APPLICATIONS” (SAFE FOODS CORPORATION, priority 2019, published 2022):
Where two headings read alike, the source gives them in different places.

Assays:
[1] = tested on: Aerobic plate count; conditions: Example 3; for Aerobic plate count: drums dipped 10 s, drip 60 s, control 5.2
Procedure: (§1) Drums (poultry) were purchased from a local retailer, frozen, and thawed for testing. The parts were allowed to sit at room temperature for 24 hours prior to testing. As a control, five drums (Sample IDs 1-5) were individually, aseptically rinsed (100 ml of rinsate).
(§2) Next, approximately 630 mL of 3,000 ppm zinc sulfate was added and manually agitated in 1 gallon of tap water in a 3-gallon bucket to yield a 500 ppm zinc sulfate solution. Five drums (Sample IDs 6-10) were fully submerged in the zinc sulfate solution, manually agitated for 10 seconds, then removed and allowed to drip for 60 seconds. The drums were individually, aseptically rinsed.
(§3) Next, 1 gallon of water and 4 ml of sulfuric acid were added to a bucket to yield a solution having a pH of 1.2. Five drums (Sample IDs 11-15) were fully submerged in the sulfuric acid solution, manually agitated for 10 seconds, then removed and allowed to drip for 60 seconds. The drums were individually, aseptically rinsed.
(§4) Lastly, 1 gallon of water and 630 mL of 3,000 ppm zinc sulfate/sulfuric acid solution were added to a bucket to yield a 500 ppm zinc sulfate/sulfuric acid solution having a pH of 1.2. Five drums (Sample IDs 16-20) were fully submerged in the zinc sulfate/sulfuric acid solution, manually agitated for 10 seconds, then removed and allowed to drip for 60 seconds. The drums were individually, aseptically rinsed.
(§5) All rinsate samples collected were placed in a refrigerator overnight. The samples were analyzed for 3M Aerobic Plate Count (APC) Petrifilm™ (AOAC Official Method 990.12), E. coli/Coliform (EC/CO) Petrifilm™ (AOAC Official Method 998.08), and Enterobacteriaceae (EB) Petrifilm™ (AOAC Official Method 2003.01). The samples were recorded as counts, which were then converted to log10 CFU/mL for statistical analysis of the means.

[2] = tested on: Enterobacteriaceae; conditions: Example 3; for Enterobacteriaceae: drums dipped 10 s, drip 60 s, control 2.8
Procedure: as §1, §2, §3, §4, §5

[3] = tested on: Aerobic plate count; conditions: Example 4; for Aerobic plate count: drums dipped 10 s, drip 60 s, control 7.9; for APC result versus control, in words: single treatments: 500 ppm zinc sulfate only (samples 6-10) or sulfuric acid pH 1.2 or less
Procedure: (§6) All rinsate samples collected were placed in a refrigerator overnight. The samples were analyzed for 3M Aerobic Plate Count (APC) Petrifilm™ (AOAC Official Method 990.12), and Enterobacteriaceae (EB) Petrifilm™ (AOAC Official Method 2003.01). The samples were recorded as counts, which were then converted to log10 CFU/mL for statistical analysis of the means.

[4] = tested on: Enterobacteriaceae; conditions: Example 4; for Enterobacteriaceae: drums dipped 10 s, drip 60 s, control 4.9; for EB analysis result versus control, in words: single treatments: 500 ppm zinc sulfate only (samples 6-10) or sulfuric acid pH 1.2 or less
Procedure: as §6

[5] = tested on: Salmonella species; conditions: ppm = mg of zinc per L of treatment solution; cited from earlier work
[6] = 1.2 pH sulfuric acid alone, Sample IDs 11-15
[7] = 500 ppm zinc sulfate alone, Sample IDs 6-10

| SMILES | Aerobic plate count, reduction from control [1, 6] [log10 CFU/ml] | Aerobic plate count [1, 6] [log10 CFU/ml] | Enterobacteriaceae, reduction from control [2, 6] [log10 CFU/ml] | Enterobacteriaceae [2, 6] [log10 CFU/ml] | Aerobic plate count, reduction from control [3, 6] [log10 CFU/ml] | Aerobic plate count [3, 6] [log10 CFU/ml] | APC result versus control, in words [3] | Enterobacteriaceae, reduction from control [4, 6] [log10 CFU/ml] | Enterobacteriaceae [4, 6] [log10 CFU/ml] | EB analysis result versus control, in words [4] | Aerobic plate count, reduction from control [1, 7] [log10 CFU/ml] | Aerobic plate count [1, 7] [log10 CFU/ml] | Enterobacteriaceae, reduction from control [2, 7] [log10 CFU/ml] | Enterobacteriaceae [2, 7] [log10 CFU/ml] | Aerobic plate count, reduction from control [3, 7] [log10 CFU/ml] | Aerobic plate count [3, 7] [log10 CFU/ml] | minimum inhibitory concentration (MIC) [5] | Enterobacteriaceae, reduction from control [4, 7] [log10 CFU/ml] | Enterobacteriaceae [4, 7] [log10 CFU/ml] |
| --- | --- | --- | --- | --- | --- | --- | --- | --- | --- | --- | --- | --- | --- | --- | --- | --- | --- | --- | --- |
| O=S(=O)(O)O [sulfuric acid, reference compound] | 0.6 | 4.6 | 1.1 | 1.7 | 0.7 | 7.2 | statistically significant reductions | 0.5 | 4.4 | statistically significant reductions |  |  |  |  |  |  |  |  |  |
| O=S(=O)([O-])[O-].[Zn+2] [zinc sulfate] |  |  |  |  |  |  | statistically significant microbial reduction |  |  | statistically significant microbial reduction | 0.7 | 4.5 | 1.1 | 1.7 | 0.7 | 7.2 | about 0.25 ppm | 1.9 | 3.3 |
